According to patent publication US20200383985A1, “Inhibitors of Protease Activated Receptor-2” (Endosome Therapeutics, Inc., priority 2017, published 2020):

Assays:
mouse DRG neurons = experiment: Patch clamp rheobase of DRG neurons: IBS-D biopsy supernatant-induced hyperexcitability; assay type: cell-based; details: I-343 10 μM, Dy4 30 μM, PD98059 50 μM
Procedure: An investigation as whether proteases from mucosal biopsies of IBS patients cause a persistent hyperexcitability of nociceptors was conducted by a mechanism that entails endosomal signaling of PAR2. Biopsies of colonic mucosa from patients with diarrhea-predominant IBS (IBS-D) or healthy control (HC) subjects were placed in culture medium (24 h, 37° C.). Mouse DRG neurons were then exposed to biopsy supernatants (30 min, 37° C.) and washed. Rheobase was measured 30 min after washing to assess persistent hyperexcitability. Supernatants of biopsies from IBS-D patients caused a persistent decrease in rheobase, consistent with hyperexcitability, when compared to supernatants from HC subjects (rheobase at 30 min: HC, 78.33±4.41 pA, 12 neurons, supernatant from 4 HC; IBS-D, 54.55±4.74 pA, 11 neurons, supernatant from 4 IBS-D; P<0.05; ANOVA, Tukey's multiple comparisons test) (FIG. 6A, B). I-343 (10 μM), Dy4 (dynamin inhibitor, 30 μM) and PD98059 (MEK1 inhibitor, 50 μM) abolished IBS-D-induced hyperexcitability of nociceptors (FIG. 6A-D).
The Queen's University Human Ethics Committee approved human studies. All subjects gave informed consent. Endoscopic biopsies were obtained from the descending colon of 13 adult IBS-D patients (12 female) diagnosed using ROME III criteria for diarrhea predominant IBS and of 12 health controls. All IBS patients had symptoms greater than 1 year and most were greater than 5 years. Celiac disease was excluded by blood test and patients over 40 years with daily diarrhea were biopsied at the time of colonoscopy to exclude microscopic colitis. […] Biopsies (8 samples per patient) were incubated in 250 μl of RPMI medium containing 10% fetal calf serum, penicillin/streptomycin and gentamicin/amphotericin B (95% O2/5% […], 24 h, 37° C.). Supernatants were stored at −80° C. Supernatants from 4-6 patients were pooled and studied in individual experiments.
DRG innervating the colon (T9-T13) were collected from C57BL/6 mice. Ganglia were digested by incubation in collagenase IV (1 mg/ml, Worthington) and dispase (4 mg/ml, Roche) (10 min, 37° C.). DRG were triturated with a fire-polished Pasteur pipette, and further digested (5 min, 37° C.). Neurons were washed, plated onto laminin- (0.017 mg/ml) and poly-D-lysine- (2 mg/ml) coated glass coverslips, and were maintained in F12 medium containing 10% fetal calf serum, penicillin and streptomycin (95% air, 5% CO2, 16 h, 37° C.) until retrieval for electrophysiological studies.
Small-diameter (<30 pF capacitance) neurons were studied because they display characteristics of nociceptors (Valdez-Morales E. E. et al., Am J Gastroenterol 2013, 108(10): 1634-1643). Changes in excitability were quantified by measuring rheobase. Whole-cell perforated patch-clamp recordings were made using Amphotericin B (240 μg/ml, Sigma Aldrich) in current clamp mode at room temperature. The recording chamber was perfused with external solution at 2 ml/min. Recordings were made using Multiclamp 700B or Axopatch 200B amplifiers, digitized by Digidata 1440A or 1322A, and processed using pClamp 10.1 software (Molecular Devices). Solutions had the composition (mM): pipette—K-gluconate 110, KC130, HEPES 10, MgCl2 1, CaCl2 2; pH 7.25 with 1 M KOH; external—NaCl 140, KCl 5 HEPES 10, glucose 10, MgCl2 1, CaCl2 2; pH to 7.3-7.4 with 3 M NaOH. […] Neurons were also preincubated with trypsin (50 nM, 10 min), NE (390 nM, 30 min), CS (500 nM, 60 min), or vehicle (37° C.), and washed. Rheobase was measured at T 0 or T 30 min after washing. To investigate mechanisms of protease-evoked effects, neurons were incubated with I-343 (100 nM, 300 nM, 10 μM, 30 min preincubation), SCH79797 (1 μM, 10 min), Dy4 (30 μM, 30 min), PS2 (15 μM, 30 min), PD98059 (50 μM, 30 min), GF109203X (10 μM, 30 min), or vehicle (preincubation and inclusion throughout). In experiments using the tripartite antagonist, neurons were preincubated with Compound 10 (30 μM, 60 min, 37° C.) or vehicle and washed. […]

PKC and cAMP = experiment: FRET assays of PKC and cAMP in HEK293 cells; assay type: cell-based
Procedure: I-343, but not SCH530348, inhibited trypsin stimulation of PKC and cAMP, which thus depend on PAR2 (FIGS. 19G and H). […] The sustained plasma membrane cAMP response to trypsin support the existence of mechanisms that allow persistent PAR2 signaling, which warrant further investigation.
HEK293 cells were cultured in DMEM supplemented with 10% (v/v) FBS (5% CO2, 37° C.). When necessary serum restriction was achieved by replacing culture medium with DMEM containing 0.5% FBS overnight. Cells were transiently transfected using polyethylenimine (PEI) (1:6 DNA:PEI).
HEK293 cells were transiently transfected in 10 cm dishes (˜50% confluency) with Flag-PAR2-HA (2.5 μg) and FRET biosensors CytoEKAR or NucEKAR (2.5 μg) (Jensen, D. D. et al., Sci Transl Med. 2017, 9(392), eaal3447; Thomsen, A. R. B., et al., Cell 2016, 166(4): 907-919). In experiments examining the role of dynamin, cells were transfected with FLAG-PAR2-HA (1.25 μg), FRET biosensor (1.25 μg) and either DynWT-HA, DynK44E-HA or pcDNA3.1 (2.5 μg). At 24 h after transfection, cells were seeded on ViewPlate-96 well plates (PerkinElmer). FRET was assessed 72 h post-transfection, following overnight serum restriction. Cells were equilibrated in HBSS-HEPES (30 min, 37° C.). FRET was measured using a PHERAstar FSX Microplate Reader (BMG LabTech). For CFP/YFP emission ratio analysis, cells were sequentially excited using a CFP filter (425/10 nm) with emission measured using YFP (550/50 nm) and CFP (490/20 nm) filters. FRET was measured before and after stimulation with trypsin (10 nM), NE (100 nM), CS (100 nM), phorbol 12,13-dibutyrate, PDBu (positive control, 1 μM), or vehicle. FRET ratios (donor/acceptor intensity for EKAR, or acceptor/donor intensity for CKAR and Epac) were calculated and corrected to baseline and vehicle treatments to determine ligand-induced FRET (ΔFRET). Treatment effects were determined by comparison of area under the curve values. Signalling inhibitors were dissolved in HBSS-HEPES. PS2 and PS2 inact were dissolved in HBSS-HEPES+1% DMSO. […]

| Compound | IBS-D-induced hyperexcitability of nociceptors (mouse DRG neurons) | rheobase of neurons exposed to HC supernatant (mouse DRG neurons) | trypsin stimulation of PKC and cAMP (PKC and cAMP; HEK293 cells) | PKC activation and cAMP generation at the plasma membrane and in the cytosol (PKC and cAMP; trypsin 10 nM) |
| --- | --- | --- | --- | --- |
| O=C(N/N=C/c1cc(O)c(O)cc1O)c1cc2ccccc2cc1O [Dy4] | abolished | non-significant decrease |  |  |
| Cc1nc(C(=O)N2CCN(C(=O)c3cn4nc(-c5ccc(F)cc5)cc(C(C)(C)C)c4n3)C(C)(C)C2)n[nH]1 [Compound I-343, (8-(tert-butyl)-6-(4-fluorophenyl)imidazo[1,2-b]pyridazin-2-yl)(2,2-dimethyl-4-(5-methyl-1H-1,2,4-triazole-3-carbonyl)piperazin-1-yl)methanone] | abolished | no effect | inhibited |  |
| trypsin |  |  |  | rapid and sustained activation |
